In PMC5572576 (The Lancet. Oncology, 2017):
Like-named read-outs stand apart in the source and are kept apart here. Marks after values point to notes of the source that are not given here.

Tested on: patients with R/R AML
[1] = 120 mg, possibly related to treatment

## CCc1nc(C(N)=O)c(Nc2ccc(N3CCC(N4CCN(C)CC4)CC3)c(OC)c2)nc1NC1CCOCC1 [gilteritinib]
20 mg
  Deaths, primary cause AML: 3 n
20 mg, one death considered possibly related to treatment
  Deaths, primary cause Intracranial hemorrhage: 2 ^c n
40 mg
  Deaths, primary cause AML: 5 n
  Deaths, primary cause Multi-organ failure: 1 n
80 mg
  Deaths, primary cause AML: 5 n
  Deaths, primary cause Bacteremia/staphylococcal bacteremia: 2 n
  Deaths, primary cause Diabetic ketoacidosis: 1 n
  Deaths, primary cause Respiratory failure: 1 n
80 mg/d
  Treatment-related Grade ≥3 elevated AST: 1 n
  Treatment-related Grade ≥3 elevated alanine aminotransferase: 1 n
80 mg, one death considered possibly related to treatment
  Deaths, primary cause Septic shock: 2 ^c n
80 mg, possibly related to treatment
  Deaths, primary cause Hemoptysis: 1 ^b n
120 mg
  Deaths, primary cause AML: 10 n
  Deaths, primary cause Colitis/neutropenic colitis: 1 n
  Deaths, primary cause Death NOS: 2 n
  Deaths, primary cause Hepatic infection: 1 n
  Deaths, primary cause Multi-organ failure: 1 n
  Deaths, primary cause Pneumonia: 2 n
  Deaths, primary cause Respiratory failure: 1 n
  Deaths, primary cause Sepsis/staphylococcal sepsis: 1 n
120 mg/d
  Treatment-related Grade ≥3 diarrhea: 1 n
  Treatment-related Grade ≥3 elevated alanine aminotransferase: 1 n
[1]
  Deaths, primary cause Neutropenia: 1 ^b n
  Deaths, primary cause Ventricular fibrillation: 1 ^b n
200 mg
  Deaths, primary cause AML: 13 n
  Deaths, primary cause Anemia: 1 n
  Deaths, primary cause Bronchopulmonary aspergillosis: 1 n
  Deaths, primary cause Cardiac arrest: 1 n
  Deaths, primary cause Cellulitis: 1 n
  Deaths, primary cause Cerebrovascular ischemia: 1 n
  Deaths, primary cause Colitis/neutropenic colitis: 1 n
  Deaths, primary cause Death NOS: 1 n
  Deaths, primary cause Febrile neutropenia: 1 n
  Deaths, primary cause Hypoxia: 1 n
  Deaths, primary cause Intracranial hemorrhage: 1 n
  Deaths, primary cause Loss of consciousness: 1 n
  Deaths, primary cause Lung infection: 1 n
  Deaths, primary cause Multi-organ failure: 5 n
  Deaths, primary cause Pneumonia: 2 n
  Deaths, primary cause Renal failure: 1 n
  Deaths, primary cause Respiratory failure: 5 n
  Deaths, primary cause Sepsis/staphylococcal sepsis: 8 n
  Deaths, primary cause Septic shock: 2 n
  Deaths, primary cause Sudden death: 1 n
  Deaths, primary cause Ventricular tachycardia: 1 n
200 mg/d
  Treatment-related Grade ≥3 diarrhea: 2 n
  Treatment-related Grade ≥3 elevated AST: 3 n
  Treatment-related Grade ≥3 elevated alanine aminotransferase: 4 n
200 mg, possibly related to treatment
  Deaths, primary cause Pulmonary embolism: 1 ^b n
300 mg
  Deaths, primary cause AML: 5 n
  Deaths, primary cause Renal failure: 1 n
  Deaths, primary cause Respiratory failure: 1 n
300 mg/d
  Treatment-related Grade ≥3 elevated AST: 1 n
450 mg
  Deaths, primary cause Cardiac arrest: 1 n
Table 2
  Urinary tract infection, Grade 3: 12 (5%) n (%)
Doses up to 200mg
  Probability of experiencing a DLT: < 20%
human, in vivo
  AE associated with dose reductions: diarrhea: 1%
  AE associated with dose reductions: fatigue: 1%
  AE that led to study discontinuation: progressive disease: 6%
  AE that led to study discontinuation: sepsis: 3%
  Acute renal failure, Grade 1: 7 (3%) n (%)
  Acute renal failure, Grade 2: 9 (4%) n (%)
  Acute renal failure, Grade 3: 8 (3%) n (%)
  Acute renal failure, Grade 4: 1 (0·4%) n (%)
  Anemia, Grade 1: 1 (0·4%) n (%)
  Anemia, Grade 2: 23 (9%) n (%)
  Anemia, Grade 3: 55 (22%) n (%)
  Anemia, Grade 4: 6 (2%) n (%)
  Anemia, Grade 5: 1 (0·4%) n (%)
  Arthralgia, Grade 1: 19 (8%) n (%)
  Arthralgia, Grade 2: 8 (3%) n (%)
  Asthenia, Grade 1: 14 (6%) n (%)
  Asthenia, Grade 2: 10 (4%) n (%)
  Asthenia, Grade 3: 6 (2%) n (%)
  Atrial fibrillation, Grade 3: 5 (2%) n (%)
  Back pain, Grade 3: 5 (2%) n (%)
  Bacteremia, Grade 3: 13 (5%) n (%)
  Bacteremia, Grade 4: 3 (1·2%) n (%)
  Bacteremia, Grade 5: 1 (0·4%) n (%)
  Cellulitis, Grade 3: 7 (3%) n (%)
  Cellulitis, Grade 5: 1 (0·4%) n (%)
  Clostridium difficile colitis, Grade 3: 5 (2%) n (%)
  Constipation, Grade 1: 40 (16%) n (%)
  Constipation, Grade 2: 17 (7%) n (%)
  Cough, Grade 1: 40 (16%) n (%)
  Cough, Grade 2: 14 (6%) n (%)
  Decreased appetite, Grade 1: 12 (5%) n (%)
  Decreased appetite, Grade 2: 18 (7%) n (%)
  Decreased neutrophil count, Grade 2: 5 (2%) n (%)
  Decreased neutrophil count, Grade 3: 7 (3%) n (%)
  Decreased neutrophil count, Grade 4: 14 (6%) n (%)
  Decreased platelet count, Grade 1: 1 (0·4%) n (%)
  Decreased platelet count, Grade 2: 3 (1·2%) n (%)
  Decreased platelet count, Grade 3: 7 (3%) n (%)
  Decreased platelet count, Grade 4: 30 (12%) n (%)
  Decreased white blood cell count, Grade 3: 6 (2%) n (%)
  Decreased white blood cell count, Grade 4: 9 (4%) n (%)
  Diarrhea, Grade 1: 47 (19%) n (%)
  Diarrhea, Grade 2: 32 (13%) n (%)
  Diarrhea, Grade 3: 13 (5%) n (%)
  Dizziness, Grade 1: 36 (14%) n (%)
  Dizziness, Grade 2: 11 (4%) n (%)
  Drug-related TEAEs leading to discontinuation: 10%
  Dysgeusia, Grade 1: 23 (9%) n (%)
  Dysgeusia, Grade 2: 4 (1·6%) n (%)
  Dyspnea, Grade 1: 29 (12%) n (%)
  Dyspnea, Grade 2: 18 (7%) n (%)
  Dyspnea, Grade 3: 11 (4%) n (%)
  Dyspnea, Grade 4: 1 (0.4%) n (%)
  Edema peripheral, Grade 1: 43 (17%) n (%)
  Edema peripheral, Grade 2: 21 (8%) n (%)
  Edema peripheral, Grade 3: 3 (1.2%) n (%)
  Elevated ALT, Grade 1: 25 (10%) n (%)
  Elevated ALT, Grade 2: 9 (4%) n (%)
  Elevated ALT, Grade 3: 13 (5%) n (%)
  Elevated AST, Grade 1: 33 (13%) n (%)
  Elevated AST, Grade 2: 18 (7%) n (%)
  Elevated AST, Grade 3: 14 (6%) n (%)
  Elevated AST, Grade 4: 1 (0·4%) n (%)
  Elevated blood alkaline phosphatase, Grade 1: 28 (11%) n (%)
  Elevated blood alkaline phosphatase, Grade 2: 5 (2%) n (%)
  Elevated blood bilirubin, Grade 3: 6 (2%) n (%)
  Elevated blood bilirubin, Grade 4: 1 (0·4%) n (%)
  Elevated blood creatinine, Grade 1: 23 (9%) n (%)
  Elevated blood creatinine, Grade 2: 12 (5%) n (%)
  Elevated blood phosphocreatine kinase, Grade 1: 7 (3%) n (%)
  Elevated blood phosphocreatine kinase, Grade 2: 7 (3%) n (%)
  Elevated blood phosphocreatine kinase, Grade 3: 7 (3%) n (%)
